Key:
Experiment in all cases: Preservative effectiveness test, single challenge
Assay type in all cases: cell-based
[1] = test system: Staphylococcus aureus (ATCC #6538); conditions: Prev(e)nar 13 formulation, single challenge, 20 to 25° C.
Text: (§1) To test for preservative effectiveness, aliquots of vaccine were inoculated with the following organisms:
(§2) Thirty milliliters (ml) of each vaccine formulation with and without Thimerosal or 2-PE at indicated concentrations or saline containing Thimerosal at 0.02% were inoculated in triplicates with a suspension of each test organism to achieve an inoculum density of approximately 10^5 to 10^6 CFU/ml at time 0 (CFU=colony forming units). […] Samples were mixed to ensure even distribution of challenged organisms. Another 30 ml of vaccine in triplicate (with and without preservative) were used as a negative control and spiked with the culture media alone to evaluate the inherent contamination that might be present in the sample or media. Each of the three series of vaccines, and positive and negative controls, was then separately incubated at 20 to 25° C. Aliquots (1 ml) of the challenged samples and controls (or their appropriate serial ten fold dilutions) were enumerated by plate count in duplicates at time 0 and at intervals of 6 hours, 24 hours, 7 days, 14 days and 28 days post-inoculation.
(§3) USP 29 NF 24 Supplement 2 (USP) requires that, after an inoculation of bacterial micro-organism(s), there is at least 1.0 log reduction from the initial calculated count (i.e., at time of inoculation) at 7 days, at least 3.0 log reduction at 14 days from the previous value measured and no increase at 28 days from the previous measured value. For yeast and fungi, the USP requirement is for there to be no increase from the time of inoculation to 7, 14 and 28 days.
(§4) EP requirements are more stringent. EP 5th Edition 5.6 (5.1.3) requirements for parenteral and ophthalmic preparations has two components: Category A and Category B. Category A (EP-A) requires, for bacteria, at least 2.0 log reduction from the initial calculated count at 6 hours after inoculation, at least 3.0 log reduction at 24 hours from the previous measured value, and no recovery at 28 days. Category B (EP-B) requires, for bacteria, at least 1.0 log reduction at 24 hours from the initial calculated count, at least 3.0 log reduction at 7 days from the previous value measured and not more than 0.5 log increase at 28 days from the previous value measured (i.e., no increase). For yeast and fungi, Category A requires at least 2.0 log reduction at 7 days and no increase from the previous value measured at 28 days, and Category B requires at least 1.0 log reduction at 14 days and no increase from the previous value measured at 28 days.
(§5) Plates containing <300 CFU for bacteria or <100 CFU for yeast or mold were used during enumeration. For single challenge studies, arithmetic average count of all surviving micro-organisms in triplicate and on duplicate plates (6 values per time point) plus their diluted samples were measured and normalized as CFU/ml. The results are expressed as mean log10 CFU/ml reduction (compared to time 0). In this case, the count of surviving micro-organisms is evaluated at time 0 as the baseline and compared to incubation time of 6 hours, 24 hours, 7 days, 14 days and 28 days.

E. coli = conditions: Prev(e)nar 13 formulation, 20 to 25° C.
Text: as §1, §2, §3, §4, §5

[2] = test system: Candida albicans (ATCC#10231); conditions: Prev(e)nar 13 formulation, single challenge, 20 to 25° C.
Text: as §1, §2, §3, §4, §5

[3] = test system: Aspergillus niger (ATCC #16404); conditions: Prev(e)nar 13 formulation, single challenge, 20 to 25° C.
Text: as §1, §2, §3, §4, §5

[4] = test system: Pseudomonas aeruginosa (ATCC #9027); conditions: Prev(e)nar 13 formulation, 20 to 25° C.
Text: as §1, §2, §3, §4, §5

Structure (SMILES) | EP (EP-B) vaccine safety requirements, S aureus [1] | USP vaccine safety requirements, S aureus [1] | EP (EP-B) vaccine safety requirements, E. coli (E. coli) | USP vaccine safety requirements, E. coli (E. coli) | EP (EP-B) vaccine safety requirements, C. albicans [2] | USP vaccine safety requirements, C. albicans [2] | EP (EP-B) vaccine safety requirements, A. niger [3] | USP vaccine safety requirements, A. niger [3] | EP (EP-B) vaccine safety requirements, P. aeruginosa [4] | USP vaccine safety requirements, P. aeruginosa [4]
Cc1cccc(O)c1 [0.3% m cresol, Meta-Cresol] | Fails | Meets | Fails | Meets | Meets | Meets | Meets | Meets | Fails | Meets
Oc1ccccc1 [0.25% phenol, Phenol] | Fails | Meets | Fails | Meets | Meets | Meets | Meets | Meets | Fails | Meets

— patent US9095567B2, “Vaccine formulations” (priority 2010, dated 2015)
